Laboratory results: article PMC6684085, “Intragenic antimicrobial peptides (IAPs) from human proteins with potent antimicrobial and anti-inflammatory activity” (PLoS ONE, 2019)
In brackets after ≈: the same amount, converted by molar mass. Entries after “also recorded” stand apart in the source; their conditions may differ. Values belong to the compound of their own block, whether it stands above or below them. Ends that are not written are not given here.

Key:
[1] = test system: Candida albicans 90028; experiment: microbe, parasite or virus in culture; assay type: cell-based; details: ATCC90028, ATCC 90028, peptides 0.5 to 256 μM, 100 μL, 96-well, no cells seen by optical microscopy, three biological repetitions with 2 technical replicates, mean ± SD, read-out: Minimum inhibitory concentration (μM ± SD) C. albicans
Description: (§1) Protocols M7-A10 [46], M27-A3 [47] and M38-A2 [48] from Clinical & Laboratory Standards Institute (CLSI) were used to test the susceptibility of bacteria, yeasts and filamentous fungi to the Hs IAPs. Briefly, Hs IAPs ranging from 0.5 to 256 μM were tested against microorganisms in a final volume of 100μL. Tests were performed in polystyrene flat-bottom 96 wells microplates and each test consisted of three biological repetitions with 2 technical replicates each. The minimum inhibitory concentration (MIC) was defined as the concentration that no cells/hyphae were detected when visualized by optical microscopy. ATCC reference strains: Candida albicans 90028, Staphylococcus aureus 25923, Pseudomonas aeruginosa 27853, Trichophyton rubrum 28189, Staphylococcus epidermidis 12228.

[2] = test system: Staphylococcus aureus 25923; experiment: microbe, parasite or virus in culture; assay type: cell-based; details: ATCC 25923, peptides 0.5 to 256 μM, 100 μL, 96-well, three biological repetitions with 2 technical replicates, mean ± SD
Description: as §1

[3] = test system: Staphylococcus epidermidis 12228; experiment: microbe, parasite or virus in culture; assay type: cell-based; details: ATCC 12228, peptides 0.5 to 256 μM, 100 μL, 96-well, three biological repetitions with 2 technical replicates, mean ± SD
Description: as §1

[4] = test system: Pseudomonas aeruginosa 27853; experiment: microbe, parasite or virus in culture; assay type: cell-based; details: ATCC27853, ATCC 27853, peptides 0.5 to 256 μM, 100 μL, 96-well, three biological repetitions with 2 technical replicates, mean ± SD, read-out: Minimum inhibitory concentration (μM ± SD) P. aeruginosa
Description: as §1

[5] = test system: mouse BALB/cN macrophage (J774A.1) cell line; assay type: cell-based; details: for Viability of J774A.1 macrophages versus DMEM untreated control: 24 h exposure, peptide at 0.1, 1 and 10 μM, flow cytometry, 20,000 events/sample, p<0.05
Description: (§2) Fig 4 a. Cytotoxicity evaluation in the mouse BALB/cN macrophage (J774A.1) cell line after exposure for 24 h at 0.1, 1.0 and 10 μM concentrations. DMEM was used as a negative control. Cells were analyzed by flow cytometry (20,000 events/sample). b. Evaluation of the cell death mechanism mediated by Hs02 in J774A.1 cells after exposure for 24 h at 0.1, 1.0 and 10 μM concentrations using annexin-V FITC (apoptosis marker) and propidium iodide (PI, necrosis marker) staining. Cells were analyzed by flow cytometry (20,000 events/sample). The values are expressed as mean ± SEM. * p<0.05 and **** p<0.0001 versus DMEM untreated control group. # p<0.05 versus apoptosis staining for each respective group.
(§3) The cytotoxicity of Hs IAPs was performed using human red blood cells in strict accordance with relevant guidelines and regulations (Ethical committee–UnB # 1.939.989 as described elsewhere. Cytotoxic effect of IAPs was evaluated by MTT assay and flow cytometry analysis using murine peritoneal macrophages from C57BL/6 mice or a BALB/cN-derived macrophages (J774A.1) cell line. For cell viability assays using MTT, murine peritoneal macrophages from C57BL/6 mice were plated in triplicate wells in 96-well plates at a density of 1.0 × 10^5 cells per well and stimulated or not with different concentrations of Hs IAPs (0.1, 1 and 10 μM) and incubated for 24h. After that, 20μl of a solution of 3-(4,5-Dimethyl-thiazol-2-yl)-2,5-diphenyl-tetrazolium bromide (MTT, Sigma) was added to each well (5 mg/ml of MTT in phosphate buffered saline). The plates were incubated at 37°C for 3 hours and then processed as previously described. Cell death was analysed by annexin V-FITC/PI staining followed by flow cytometry analysis. Mouse BALB/cN macrophage (J774A.1) cell line was acquired from ATCC (number TIB-67) and cultured in Dulbecco’s Modified Eagle’s Medium (DMEM) (Life) supplemented with 10% heat inactivated foetal bovine serum (Life) and 1% antibiotic solution (100 IU/mL penicillin/100 μg/mL streptomycin, Life) at 37°C, 5% CO2, in a humidified atmosphere. […]

[6] = test system: human red blood cells; assay type: cell-based
Description: The cytotoxicity of Hs IAPs was performed using human red blood cells in strict accordance with relevant guidelines and regulations (Ethical committee–UnB # 1.939.989 as described elsewhere. Cytotoxic effect of IAPs was evaluated by MTT assay and flow cytometry analysis using murine peritoneal macrophages from C57BL/6 mice or a BALB/cN-derived macrophages (J774A.1) cell line. For cell viability assays using MTT, murine peritoneal macrophages from C57BL/6 mice were plated in triplicate wells in 96-well plates at a density of 1.0 × 10^5 cells per well and stimulated or not with different concentrations of Hs IAPs (0.1, 1 and 10 μM) and incubated for 24h. After that, 20μl of a solution of 3-(4,5-Dimethyl-thiazol-2-yl)-2,5-diphenyl-tetrazolium bromide (MTT, Sigma) was added to each well (5 mg/ml of MTT in phosphate buffered saline). The plates were incubated at 37°C for 3 hours and then processed as previously described. Cell death was analysed by annexin V-FITC/PI staining followed by flow cytometry analysis. Mouse BALB/cN macrophage (J774A.1) cell line was acquired from ATCC (number TIB-67) and cultured in Dulbecco’s Modified Eagle’s Medium (DMEM) (Life) supplemented with 10% heat inactivated foetal bovine serum (Life) and 1% antibiotic solution (100 IU/mL penicillin/100 μg/mL streptomycin, Life) at 37°C, 5% CO2, in a humidified atmosphere. J774A.1 cells were seeded into 96-well culture plates in DMEM culture medium for 2 h at 37°C and 5% CO2 in a humid atmosphere at a density of 1.0 × 10^5 cells, and stimulated or not with different concentrations of Hs IAPs (0.1, 1 and 10 μM). The plates were incubated for 24 h, washed in PBS, and resuspended in 100 μL of binding buffer (10 mM HEPES/NaOH pH 7.4, 140 mM NaCl, ad 2.5 mM CaCl2). Cells were then treated with 2 μL of annexin-V FITC in Aqueous buffered solution containing BSA and ≤0.09% sodium azide (BD Pharmingen) and 2 μL of propidium iodide (PI, 50 μg/mL) for 15 min in the dark at room temperature. Next, 100 μL binding buffer was added and a total of 20,000 events were collected per sample in flow cytometer (BD LSRFortessa).

[7] = test system: murine peritoneal macrophages from C57BL/6 mice; experiment: MTT reduction assay in primary macrophages; assay type: cell-based, mouse; details: 24 h incubation, triplicate wells (S1 Fig)
Description: as §3

[8] = test system: murine peritoneal macrophages from C57BL/6 mice; experiment: LPS-induced TNF-α release by ELISA; assay type: cell-based, mouse; details: macrophages primed with 500 ng/mL LPS for 4 h, then peptide for 24 h, Hs02 at 0.1, 1 and 10 μM, DS01 at 1 and 10 μM
Description: Fig 5 TNF-α secretion and lipid droplet biogenesis evaluation. a. Murine peritoneal macrophages from C57BL/6 mice were pre-treated or not with LPS (500 ng/ml) for 4h and then stimulated or not with Hs IAPs (0.1, 1.0 and 10 μM), incubated for 24h and TNF-α levels measured by ELISA b. In parallel, murine peritoneal macrophages from C57BL/6 mice were pre-treated or not with LPS (500 ng/ml) for 4h and then stimulated or not with Hs IAPs (0.1 μM), incubated for 24h and lipid droplets were quantitated by flow cytometry (B). The values are expressed as mean ±SEM. * p<0.05 and **** p<0.0001 versus DMEM control group. […] The digits of 121, 119, 364 and 122 are best readings.
The modulation of pro-inflammatory cytokine TNF-α secretion induced by IAPs was evaluated by ELISA. […] Supernatant TNF-α concentration was detected by ELISA with a R&D Systems (USA) kit. […] Plates were read after adding the stop solution at 450nm using SpectraMax M3spectrophotometer (Molecular Devices).
Supplementary file pone.0220656.s004.tif: S3 Fig TNF-α release in murine macrophages. Murine peritoneal macrophages from C57BL/6 mice were pre-treated or not with LPS (500 ng/ml) for 4h and then stimulated or not with the AMP DS01 (10, and 1 μM), incubated for 24h and TNF-α levels measured by ELISA. The values are expressed as mean ±SEM. * p<0.05 and **** p<0.0001 versus DMEM control group. […]

[9] = test system: mouse BALB/cN macrophage (J774A.1) cell line; experiment: Annexin-V FITC / propidium iodide staining by flow cytometry; assay type: cell-based; details: 24 h exposure at 0.1, 1.0 and 10 μM; flow cytometry, 20,000 events/sample
Description: as §2
The cytotoxicity of Hs IAPs was performed using human red blood cells in strict accordance with relevant guidelines and regulations (Ethical committee–UnB # 1.939.989 as described elsewhere. Cytotoxic effect of IAPs was evaluated by MTT assay and flow cytometry analysis using murine peritoneal macrophages from C57BL/6 mice or a BALB/cN-derived macrophages (J774A.1) cell line. For cell viability assays using MTT, murine peritoneal macrophages from C57BL/6 mice were plated in triplicate wells in 96-well plates at a density of 1.0 × 10^5 cells per well and stimulated or not with different concentrations of Hs IAPs (0.1, 1 and 10 μM) and incubated for 24h. […]

- MIC [1]: 0.27 µM (≈ 0.25 µg/mL)
Compound: C[C@@H]1[C@H](O)[C@@H](C)/C=C/C=C/C=C/C=C/C=C/C=C/C=C/[C@H](O[C@@H]2O[C@H](C)[C@@H](O)[C@H](N)[C@@H]2O)C[C@@H]2O[C@](O)(C[C@@H](O)C[C@@H](O)[C@H](O)CC[C@@H](O)C[C@@H](O)CC(=O)O[C@H]1C)C[C@H](O)[C@H]2C(=O)O [Amphotericin b]

Compound: CC1(C)S[C@@H]2[C@H](NC(=O)[C@H](N)c3ccccc3)C(=O)N2[C@H]1C(=O)O [Ampicilin]
- Minimum inhibitory concentration (μM ± SD) S. aureus [2]: 5.38 ± 0.0 µM (≈ 1.88 µg/mL)
- Minimum inhibitory concentration (μM ± SD) S. epidermidis [3]: 43.10 ± 0.0 µM (≈ 15.1 µg/mL)

- MIC [1]: 1.63 µM (≈ 0.499 µg/mL)
Compound: OC(Cn1cncn1)(Cn1cncn1)c1ccc(F)cc1F [Fluconazol]

- MIC [4]: 0.13 µM (≈ 0.0621 µg/mL)
- MIC ([2]; Staphylococcus aureus, ATCC25923, read-out: Minimum inhibitory concentration (μM ± SD) S. aureus): 0.26 µM (≈ 0.124 µg/mL)
- MIC ([3]; Staphylococcus epidermidis, ATCC12228, read-out: Minimum inhibitory concentration (μM ± SD) S. epidermidis): 0.26 µM (≈ 0.124 µg/mL)
Compound: CNC(C)C1CCC(N)C(OC2C(N)CC(N)C(OC3OCC(C)(O)C(NC)C3O)C2O)O1 (centres unmarked) [Gentamicin]

Compound: OO [hydrogen peroxide (H2O2), hydrogen peroxide]
- Viability of J774A.1 macrophages versus DMEM untreated control [5]: decreased significantly (p<0.05) the cell viability

Compound: FLREFHKWIERVVGWLGKVF-NH2 [Hs03]
- Hemolytic activity SC50 [6]: > 128 µM
- Concentration that reduced the viability of peritoneal macrophages to 50% [7]: approximately 10 μM

Compound: GFKDLLKGAAKALVKTVLF-NH2 [Asc-8]
- Hemolytic activity SC50 [6]: 32 µM

Compound: GLWSTIKQKGKEAAIAAAKAAGQAALGAL-NH2 [DS01]
- Hemolytic activity SC50 [6]: > 128 µM
- Peptide concentration that inhibits LPS-induced release of TNF-α [8]: > 10 µM

Compound: KWAVRIIRKFIKGFIS-NH2 [Hs02]
- Apoptosis (annexin-V FITC) or necrosis (PI) in J774A.1 cells versus DMEM control [9]: did not present significant apoptosis or necrosis; also recorded: No significant apoptosis or necrosis
- Viability of J774A.1 macrophages versus DMEM untreated control [5]: did not cause significant (p<0.05) reduction in the viability
- Concentration tolerated by the J774A.1 macrophage cell line ([5]; flow cytometry, 24 h, 0.1, 1 and 10 μM tested): ≥ 10 µM
- Hemolytic activity SC50 [6]: > 128 µM

Compound: LFNNYITAALKLLEKLYKV-NH2 [Hs04]
- Hemolytic activity SC50 [6]: 64 µM
- Concentration that reduced the viability of peritoneal macrophages to 50% [7]: approximately 10 μM

Compound: LKMLGMLFHNIRNILKTV-NH2 [Hs01]
- Hemolytic activity SC50 [6]: > 128 µM
